Measured values published in patent US20260184712A1, “Heterocyclic Compounds as ENT Inhibitors and Compounds for Use in the Treatment of Cancers” (iTeos Belgium SA, priority 2022, published 2026).

These compounds were tested against T1, human ENT1 (Homo sapiens, UniProt Q99808) (assay: ENT1 binding assay (competition with Sahenta-DY647 on JAR cells)). Details: Binding Assay IC50, competition with SAHENTA-DY647 binding; IC50 categorized.
T1 construct: JAR cells expressing ENT1 were purchased from ATCC; host or cells: JAR cells
T1 sequence (Q99808 1-456): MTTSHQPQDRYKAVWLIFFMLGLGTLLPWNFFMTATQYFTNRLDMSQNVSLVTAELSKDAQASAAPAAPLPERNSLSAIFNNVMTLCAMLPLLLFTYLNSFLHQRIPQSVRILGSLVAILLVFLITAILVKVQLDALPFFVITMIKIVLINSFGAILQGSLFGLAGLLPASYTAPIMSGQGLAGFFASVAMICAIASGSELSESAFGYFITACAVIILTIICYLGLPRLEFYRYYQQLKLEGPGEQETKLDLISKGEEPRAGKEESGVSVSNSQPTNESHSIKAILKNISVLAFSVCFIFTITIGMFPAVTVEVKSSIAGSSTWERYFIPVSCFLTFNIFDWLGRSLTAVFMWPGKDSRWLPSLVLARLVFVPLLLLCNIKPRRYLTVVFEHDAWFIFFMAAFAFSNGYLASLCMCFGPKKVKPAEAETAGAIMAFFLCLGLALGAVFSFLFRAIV
Procedure, shortened: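 Fluorescent-tracer displacement: compound incubated with JAR cells 30 min, 4 °C, before Sahenta-DY647 (100 nM) for another 30 min, 4 °C, in Hepes-buffered HBSS with 0.1% BSA. Bound tracer read at 670 nm after washes; IC50 from four-parameter fit, reported as mean of pIC50 values.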

SMILES	IC50
C[C@H]1O[C@@H](n2cnc3c(SCc4ccccc4)ncnc32)[C@H](O)[C@@H]1O [Compound 224]	> 500 nM

Same assay, conditions: competition with SAHENTA-DY647 binding; IC50 categorized; read-out: Binding Assay IC50

SMILES	IC50
C[C@H]1O[C@@H](n2cnc3c(OCc4cc(Cl)cc(Cl)c4)ncnc32)[C@H](O)[C@@H]1O [Compound 217]	20 to 500 nM
O=[N+]([O-])c1ccc(COc2ncnc3c2ncn3[C@@H]2O[C@H](CCCO)[C@@H](O)[C@H]2O)cc1 [Compound 218]	20 to 500 nM
CCOC(=O)CC[C@H]1O[C@@H](n2cnc3c(OCc4ccc([N+](=O)[O-])cc4)ncnc32)[C@H](O)[C@@H]1O [Compound 219]	> 500 nM
O=[N+]([O-])c1ccc(COc2ncnc3c2ncn3[C@@H]2O[C@H](CO)[C@@H](O)C2(F)F)cc1 [Compound 220]	> 500 nM
C[C@H]1O[C@@H](n2cnc3c(OCc4cccc(C#N)c4)ncnc32)[C@H](O)[C@@H]1O [Compound 221]	> 500 nM
C[C@H]1O[C@@H](n2cnc3c(OCc4ccc([N+](=O)[O-])cc4)nc(Cl)nc32)[C@H](O)[C@@H]1O [Compound 222]	> 500 nM
C[C@H]1O[C@@H](n2cnc3c(OCCc4cc(F)c(C#N)c(F)c4)ncnc32)[C@H](O)[C@@H]1O [Compound 223]	> 500 nM
C[C@H]1O[C@@H](n2cnc3c(OCc4ccc([N+](=O)[O-])cc4)nc(F)nc32)[C@H](O)[C@@H]1O [Compound 225]	> 500 nM
C[C@H]1O[C@@H](n2cnc3c(OCc4ccc(Cl)c(Cl)c4)ncnc32)[C@H](O)[C@@H]1O [Compound 226]	> 500 nM
C[C@H]1O[C@@H](n2cnc3c(C4CCc5ccc([N+](=O)[O-])cc5C4)ncnc32)[C@H](O)[C@@H]1O (stereo partly shown) [Compound 227]	> 500 nM
C[C@H]1O[C@@H](n2cnc3c(OC4CCc5ccc([N+](=O)[O-])cc5C4)ncnc32)[C@H](O)[C@@H]1O (stereo partly shown) [Compound 228]	> 500 nM
O=[N+]([O-])c1ccc(COc2ncnc3c2ncn3[C@@H]2O[C@H](CCO)[C@@H](O)[C@H]2O)cc1 [Compound 229]	> 500 nM
COc1ccc(COc2ncnc3c2ncn3[C@@H]2O[C@H](C)[C@@H](O)[C@H]2O)cc1C(F)(F)F [Compound 230]	> 500 nM
COc1ccc(COc2ncnc3c2ncn3[C@@H]2O[C@H](C)[C@@H](O)[C@H]2O)cc1 [Compound 231]	> 500 nM
C[C@H]1O[C@@H](n2cnc3c(OCCc4ccc(C#N)c(F)c4)ncnc32)[C@H](O)[C@@H]1O [Compound 232]	> 500 nM
C[C@H]1OC(n2cnc3c(COc4ccc(OC(F)F)cc4)ncnc32)[C@H](O)[C@@H]1O (stereo partly shown) [Compound 233]	> 500 nM
C[C@H]1O[C@@H](n2cnc3c(OCc4ccc(OC(F)(F)F)c(Cl)c4)ncnc32)[C@H](O)[C@@H]1O [Compound 234]	> 500 nM
Cc1cc(Cl)ccc1COc1ncnc2c1ncn2[C@@H]1O[C@H](C)[C@@H](O)[C@H]1O [Compound 235]	> 500 nM
C[C@H]1O[C@@H](n2cnc3c(OCc4ccc(OCCF)cc4)ncnc32)[C@H](O)[C@@H]1O [Compound 236]	> 500 nM
C[C@H]1O[C@H](n2cnc3c(OCc4ccc(C#N)c(F)c4)nc(Cl)nc32)[C@H](O)[C@@H]1O [Compound 237]	> 500 nM

SMILES	IC50
C[C@H]1O[C@@H](n2cnc3c(OCc4ccc(F)c(F)c4F)ncnc32)[C@H](O)[C@@H]1O [Compound 238]	> 500 nM
O=[N+]([O-])c1ccc(COc2ncnc3c2ncn3[C@@H]2O[C@H](COCCN3CCCC3)[C@@H](O)[C@H]2O)cc1 [Compound 240]	> 500 nM
C[C@H]1O[C@@H](n2cnc3c(OCCc4ccc(OC(F)(F)F)cc4)ncnc32)[C@H](O)[C@@H]1O [Compound 241]	> 500 nM
C[C@H]1O[C@@H](n2cnc3c(SCc4ccccc4S(N)(=O)=O)ncnc32)[C@H](O)[C@@H]1O [Compound 242]	> 500 nM
NC(=O)[C@H]1O[C@@H](n2cnc3c(SCc4ccc([N+](=O)[O-])cc4)ncnc32)[C@H](O)[C@@H]1O [Compound 243]	> 500 nM
C[C@H]1O[C@@H](n2cnc3c(OCc4ccc(C#N)cc4)nc(Cl)nc32)[C@H](O)[C@@H]1O [Compound 244]	> 500 nM
CC(=O)c1ccc(COc2ncnc3c2ncn3[C@@H]2O[C@H](C)[C@@H](O)[C@H]2O)cc1 [Compound 245]	> 500 nM
C[C@H]1O[C@@H](n2cnc3c(OCc4cccc(OC(F)F)c4)ncnc32)[C@H](O)[C@@H]1O [Compound 246]	> 500 nM
C[C@H]1O[C@@H](n2c(O)nc3c(OCc4ccc([N+](=O)[O-])cc4)ncnc32)[C@H](O)[C@@H]1O [Compound 247]	> 500 nM
C[C@H]1O[C@@H](n2cnc3c(OCCc4ccc([N+](=O)[O-])nc4)ncnc32)[C@H](O)[C@@H]1O [Compound 248]	> 500 nM
C[C@H]1O[C@@H](n2cnc3c(OCCc4ccc(C#N)cc4)ncnc32)[C@H](O)[C@@H]1O [Compound 249]	> 500 nM
C[C@H]1O[C@@H](n2cnc3c(OCc4ccc(Cl)c(C(F)(F)F)c4)ncnc32)[C@H](O)[C@@H]1O [Compound 250]	> 500 nM
C[C@H]1O[C@@H](n2cnc3c(SCc4cncc(C#N)c4)ncnc32)[C@H](O)[C@@H]1O [Compound 251]	> 500 nM
C[C@H]1O[C@@H](n2cnc3c(NCCc4ccc([N+](=O)[O-])cc4)ncnc32)[C@H](O)[C@@H]1O [Compound 252]	> 500 nM
C[C@H]1O[C@@H](n2cnc3c(C(=O)N4CCCC4c4ccccc4)ncnc32)[C@H](O)[C@@H]1O (stereo partly shown) [Compound 253]	> 500 nM
C[C@H]1O[C@@H](n2cnc3c(NCc4ccc(Cl)c(Cl)c4)ncnc32)[C@H](O)[C@@H]1O [Compound 254]	> 500 nM
C[C@H]1O[C@@H](n2cnc3c(NCc4ccc(-c5ncon5)cc4)ncnc32)[C@H](O)[C@@H]1O [Compound 255]	> 500 nM
C[C@H]1O[C@@H](n2cnc3c(OCc4ccc([N+](=O)[O-])cc4)nc(O)nc32)[C@H](O)[C@@H]1O [Compound 256]	> 500 nM
C[C@H]1O[C@@H](n2cnc3c(SCc4ccc(C#N)cn4)ncnc32)[C@H](O)[C@@H]1O [Compound 257]	> 500 nM
C[C@H]1OC(n2cnc3c(COc4ccc(C#N)c(F)c4)ncnc32)[C@H](O)[C@@H]1O (stereo partly shown) [Compound 258]	> 500 nM

SMILES	IC50
Cc1nc(OCc2ccc([N+](=O)[O-])cc2)c2ncn([C@@H]3O[C@H](C)[C@@H](O)[C@H]3O)c2n1 [Compound 259]	> 500 nM
C[C@H]1O[C@@H](n2cnc3c(OCc4c(F)cc(F)cc4F)ncnc32)[C@H](O)[C@@H]1O [Compound 260]	> 500 nM
C[C@H]1O[C@@H](n2cnc3c(NCc4ccc(NS(C)(=O)=O)cc4)ncnc32)[C@H](O)[C@@H]1O [Compound 261]	> 500 nM
CC(C)(O)[C@H]1O[C@@H](n2cnc3c(SCc4ccc(OC(F)(F)F)cc4)ncnc32)[C@H](O)[C@@H]1O [Compound 262]	> 500 nM
CC(Oc1ncnc2c1ncn2[C@@H]1O[C@H](C)[C@@H](O)[C@H]1O)c1ccc(OC(F)F)cc1 (stereo partly shown) [Compound 263]	> 500 nM
CNc1nc2c(OCc3ccccc3)ncnc2n1[C@@H]1O[C@H](C)[C@@H](O)[C@H]1O [Compound 264]	> 500 nM
C[C@H]1O[C@@H](n2cnc3c(OCCc4cnc(C#N)c(F)c4)ncnc32)[C@H](O)[C@@H]1O [Compound 265]	> 500 nM
C[C@H]1O[C@@H](n2cnc3c(C(=O)N4CC(c5ccc([N+](=O)[O-])cc5)C4)ncnc32)[C@H](O)[C@@H]1O [Compound 266]	> 500 nM
C[C@H]1O[C@@H](n2cnc3c(OCCc4ccc(C(F)F)cc4)ncnc32)[C@H](O)[C@@H]1O [Compound 267]	> 500 nM
C[C@H]1O[C@@H](n2cnc3c(OCCc4cc(F)c(Cl)c(F)c4)ncnc32)[C@H](O)[C@@H]1O [Compound 268]	> 500 nM
C[C@H]1O[C@@H](n2cnc3c(OCc4c(F)cc(C#N)cc4F)ncnc32)[C@H](O)[C@@H]1O [Compound 269]	> 500 nM
C[C@H]1O[C@@H](n2cnc3c(SCc4ccc(C(F)(F)F)nc4)ncnc32)[C@H](O)[C@@H]1O [Compound 270]	> 500 nM
O=C(NCCO)[C@H]1O[C@@H](n2cnc3c(OCc4ccc([N+](=O)[O-])cc4)ncnc32)[C@H](O)[C@@H]1O [Compound 271]	> 500 nM
Cc1cc(CSc2ncnc3c2ncn3[C@@H]2O[C@H](C)[C@@H](O)[C@H]2O)cc(C)c1F [Compound 272]	> 500 nM
C[C@H]1O[C@@H](n2cnc3c(SCc4cccc(S(N)(=O)=O)c4)ncnc32)[C@H](O)[C@@H]1O [Compound 273]	> 500 nM
C[C@H]1O[C@@H](n2cnc3c(OCc4cccc(C(F)(F)F)c4)ncnc32)[C@H](O)[C@@H]1O [Compound 274]	> 500 nM
C[C@H]1O[C@@H](n2cnc3c(OCCc4cccc([N+](=O)[O-])c4)ncnc32)[C@H](O)[C@@H]1O [Compound 275]	> 500 nM
C[C@H]1O[C@@H](n2cnc3c(OCCc4ccc(OC(F)F)cc4)ncnc32)[C@H](O)[C@@H]1O [Compound 276]	> 500 nM
C[C@H]1O[C@@H](n2cnc3c(NCc4ccc(S(C)(=O)=O)cc4)ncnc32)[C@H](O)[C@@H]1O [Compound 277]	> 500 nM
C[C@H]1O[C@@H](n2cnc3c(OCCc4ccc(OC(F)F)nc4)ncnc32)[C@H](O)[C@@H]1O [Compound 278]	> 500 nM
